The values that follow come from patent publication US20150080462A1, “COMPOSITIONS AND METHODS FOR THE TREATMENT OR PREVENTION OF DISORDERS RELATING TO OXIDATIVE STRESS” (THE JOHNS HOPKINS UNIVERSITY, priority 2005, published 2015).

The nature of data set [1]: Physiological parameters (pH, PaCO2, PaO2) of mice treated with vehicle and EC. Type of data set: in vivo, mouse. The conditions noted are these: different drug concentrations and vehicle. As to the method: In a separate cohort of mice (5 WT; 5 Nrf2^−/−) that underwent an identical stroke protocol, including CBF monitoring, blood samples were collected through a PE-10 femoral artery catheter (Intramedic; BD Diagnostic Systems, Sparks, Md.) 30 minutes before MCAO, 1 hour after initiation of MCAO, and 1 hour after reperfusion. The blood was evaluated for pH, PaO2, and PaCO2 via blood gas analysis (Rapidlab 248; Chiron Diagnostic Corporation, Norwood, Mass.). In some experiments, blood was drawn intermittently at different intervals of time; 30 minutes before MCAO, 1 h after the initiation of MCAO, and 1 h after reperfusion.

In data set [2] the test system is MCAO induced brain injury. The data set can be described thus: Corrected infarct volume (TTC) after MCAO, EC treatment. The data set is classed as in vivo, mouse. As to the method: After 24 or 72 h of reperfusion, mice were anesthetized, and their brains dissected out and cut into 2-mm coronal sections. Brain slices were stained with 2,3,5-triphenyltetrazolium chloride (TTC, Sigma Co, St. […] Cerebral cortex and striatum volumes in ipsilateral necrotic lesion and contralateral normal side of the brain were measured multiplying the sum of the areas by the distance between sections. Infarct volume was indirectly calculated by subtracting the volume of intact tissue in the ipsilateral hemisphere from that of the contralateral hemisphere and expressed as the percentage of infarct area to the total hemispheric area for each slice. Epicatechin (EC) was given orally (per kilogram of body weight) through gavage and precautions were taken not only to minimize the stress to animals but also careful administration of the drug solution. For pre-treatment studies, a single dose of EC was given 90 minutes before middle cerebral artery occlusion (MCAO). […] MCAO procedure was slightly modified from the methods previously published by Shah et al. (Shah, et al. in press, 2006). […] To measure relative cerebral blood flow (CBF), mice were placed in a porcine posture on a temperature controlled heat blanket (37° C.). Under an operating microscope, a 0.5-mm diameter microfiber was glued to the skull (over the area of parietal cortex) with cyanoacrylate glue (Super Glue Gel, Ross Products, Inc.) approximately 6 mm lateral and 1 mm posterior of bregma and connected to a laser-Doppler flowmeter (DRT4, Moor Instruments Ltd, Devon, England). Mice were allowed to return to supine position and a neck midline-incision was made to expose the right common carotid artery (CCA), external carotid artery (ECA), and internal carotid arteries (ICA) after dissecting in through out thyroid glands. All the arteries were separated from the vagus nerve. A specially devised method for making 7-0 Ethilon nylon filament (Ethicon, Inc., Somarville, N.J.) with 5 mm of the tip coated with silicone (Cutter Sil Light and Universal Hardener, Heraeus Kulzer, GmbH, Hanau, Germany) was employed and the filament was introduced into the ICA through the ECA stump to block the blood circulation to MCA or circle of Willis. The filament was carefully advanced up to 11 mm from the carotid artery bifurcation or until resistance was felt. […] CFB was monitored for up to 5 minutes and mice not attaining the required drop were terminated from the study. Cortical perfusion values were expressed as a percentage relative to baseline. Animals were shifted to a humidity/temperature-controlled chamber at 32° C. to maintain the body temperature during the 90 minutes of MCA occlusion, at 37° C. For reperfusion mice were briefly anesthetizing and filament was withdrawn. After suturing the neck, midline wound mice were again returned to a humidity/temperature-controlled chamber for 2 h to maintain the body temperature at 37° C. and then later shifted to their respective cages.

For data set [3] the following is noted: previous toxicological studies (Galati et al 2006); cited from earlier work.
Data set [4] deals with MCAO induced brain injury. In words: Neurological deficit score after MCAO, EC treatment. The data set is classed as in vivo, mouse. The conditions noted are these: for NDS: HO1WT mice. An excerpt: Motor deficits were graded by sensorimotor performance or neurological score by the method of Longa et al. (Stroke. 20:84-91.1989). […] (1) no deficit, (2) forelimb weakness, (3) inability to bear weight on the affected side, (4) no spontaneous motor activity. Epicatechin (EC) was given orally (per kilogram of body weight) through gavage and precautions were taken not only to minimize the stress to animals but also careful administration of the drug solution. For pre-treatment studies, a single dose of EC was given 90 minutes before middle cerebral artery occlusion (MCAO). […] MCAO procedure was slightly modified from the methods previously published by Shah et al. (Shah, et al. in press, 2006). […] To measure relative cerebral blood flow (CBF), mice were placed in a porcine posture on a temperature controlled heat blanket (37° C.). Under an operating microscope, a 0.5-mm diameter microfiber was glued to the skull (over the area of parietal cortex) with cyanoacrylate glue (Super Glue Gel, Ross Products, Inc.) approximately 6 mm lateral and 1 mm posterior of bregma and connected to a laser-Doppler flowmeter (DRT4, Moor Instruments Ltd, Devon, England). Mice were allowed to return to supine position and a neck midline-incision was made to expose the right common carotid artery (CCA), external carotid artery (ECA), and internal carotid arteries (ICA) after dissecting in through out thyroid glands. All the arteries were separated from the vagus nerve. A specially devised method for making 7-0 Ethilon nylon filament (Ethicon, Inc., Somarville, N.J.) with 5 mm of the tip coated with silicone (Cutter Sil Light and Universal Hardener, Heraeus Kulzer, GmbH, Hanau, Germany) was employed and the filament was introduced into the ICA through the ECA stump to block the blood circulation to MCA or circle of Willis. The filament was carefully advanced up to 11 mm from the carotid artery bifurcation or until resistance was felt. […] CFB was monitored for up to 5 minutes and mice not attaining the required drop were terminated from the study. Cortical perfusion values were expressed as a percentage relative to baseline. Animals were shifted to a humidity/temperature-controlled chamber at 32° C. to maintain the body temperature during the 90 minutes of MCA occlusion, at 37° C. For reperfusion mice were briefly anesthetizing and filament was withdrawn. After suturing the neck, midline wound mice were again returned to a humidity/temperature-controlled chamber for 2 h to maintain the body temperature at 37° C. and then later shifted to their respective cages.

The subject of a further data set is HO1 WT mice. The data set can be described thus: 72 h survival after MCAO, EC post-treatment. The data set is classed as in vivo, mouse. As to conditions: EC 30 mg/kg after 2 h or 4.5 h of reperfusion, 10 survived with vehicle.

Structures are written as SMILES.

On to `Oc1cc(O)c2c(c1)O[C@H](c1ccc(O)c(O)c1)[C@H](O)C2` [EC, (−)-Epicatechin], for which, in data set [1], the “physiological parameters (pH, PaCo2, Pao2) vs vehicle” value was “no differences”. For the same compound, the corrected infarct volume in data set [2] (HO1 WT mice, EC 2.5 mg/kg oral 90 min before MCAO, 24 h reperfusion, not significant) turned out to be 33.8±3.3%; in data set [2] (HO1 WT mice, EC 5 mg/kg oral 90 min before MCAO, 24 h reperfusion), 28.8±2.9%; in data set [2] (HO1 WT mice, EC 15 mg/kg oral 90 min before MCAO, 24 h reperfusion), 24.9±3.8%; in data set [2] (HO1 WT mice, EC 30 mg/kg oral 90 min before MCAO (90 min), 24 h reperfusion, vehicle 34.2±3.4%) it was 20.1±2.7%; in data set [2] (Nrf2−/− mice, EC 30 mg/kg 90 min before MCAO, 24 h reperfusion, vehicle 44.8±4.6, not significant, in %) it was 43.0±2.4. Also, the infarct volume in data set [2] (HO1 WT mice, EC 30 mg/kg after 2 h of reperfusion, 72 h, vehicle 46.6±5.3, in %) came out at 33.5±3.2; in data set [2] (HO1−/− mice, EC 30 mg/kg 90 min before MCAO, 24 h reperfusion, vehicle 37.1±3.9%, not significant), 33.8±3.2%; in data set [2] (Nrf2 WT mice, EC 30 mg/kg 90 min before MCAO, 24 h reperfusion, vehicle 31.3±1.9%) it was 24.1±1.8%. The infarction volume in data set [2] (HO1WT mice, EC 30 mg/kg post-treatment (3.5 h after MCAO), 72 h survival, vehicle 46.6±5.3%) turned out to be 33.5±3.2%. Further, the safe dose result in data set [3] is listed as “up to 150 mg”. Also, the neurological deficit score in data set [4] (HO1 WT mice, EC 2.5 mg/kg pre-treatment, no difference vs vehicle) was found to be 3.3±0.29; in data set [4] (HO1 WT mice, EC 5 mg/kg pre-treatment) it was 3±0.35; in data set [4] (HO1 WT mice, EC 15 mg/kg pre-treatment) it was 2.7±0.39; in data set [4] (HO1 WT mice, EC 30 mg/kg at 3.5 h, scored at 24 h of reperfusion, vehicle 3.5±0.26) it was 2.8±0.3; in data set [4] (HO1 WT mice, EC 30 mg/kg at 6 h, scored at 24 h of reperfusion, vehicle 3.5±0.26) it was 1.8±0.1; in data set [4] (HO1 WT mice, EC 30 mg/kg pre-treatment) it was 2.5±0.25. The neurological deficit score in data set [4] (Nrf2 WT mice, EC 30 mg/kg pre-treatment, 24 h, vehicle 3.1±0.26) came to 2.3±0.1; in data set [4] (Nrf2−/− mice, EC 30 mg/kg pre-treatment, 24 h, vehicle 3.5±0.1, not significant) it was 3.4±0.17. In addition, the NDS was 1.8±0.1 in data set [4] (EC 30 mg/kg 6 h post-treatment, vehicle 2.3±0.16, not significant) and 1.8±0.1 in data set [4] (EC 30 mg/kg post-treatment (3.5 h after MCAO), vehicle 2.3±0.1). The “mice surviving 72 h (of 12 per group)” value in the data set on HO1 WT mice turned out to be 12 mice.
